Measurements taken from patent US20100267778A1, “Diphenyl ether compound, process for producing the same, and use” (priority 2003, published 2010).

Experiments:
[1] = molecular target: T1, human PPAR δ (Homo sapiens, UniProt Q03181); assay: Luciferase assay using human PPAR δ (Gal4-PPAR δ ligand binding domain chimera, CV-1 cells); assay type: cell-based; conditions: relative value, carbacyclin at 30 μM defined as 1
T1 construct: expressed in transfected cells; host or cells: CV-1 cells
T1 sequence (Q03181 139-441): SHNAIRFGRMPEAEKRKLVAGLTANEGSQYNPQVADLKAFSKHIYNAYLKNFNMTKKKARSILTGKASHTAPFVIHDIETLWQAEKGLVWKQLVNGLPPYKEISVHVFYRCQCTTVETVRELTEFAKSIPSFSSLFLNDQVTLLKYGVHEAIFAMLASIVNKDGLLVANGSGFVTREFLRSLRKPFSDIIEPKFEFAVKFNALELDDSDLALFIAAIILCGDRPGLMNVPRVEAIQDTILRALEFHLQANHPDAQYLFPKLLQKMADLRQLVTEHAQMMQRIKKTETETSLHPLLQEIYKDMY

[2] = tested on: Male mice (C57BL/6NCrj) loaded with a high-cholesterol feed; assay: Lowering action for cholesterol in blood and lipid in blood, mice loaded with high-cholesterol feed; assay type: in vivo; conditions: relative value, medium group = 100%
Experimental: Lowering action for cholesterol in blood and lipid in blood:
Male mice of seven weeks age (C57BL/6NCrj) was loaded with a high-cholesterol feed (CRF-1 Solid Feed in which 5.5% of peanut oil, 1.5% of cholesterol and 0.5% of cholic acid were mixed; Oriental Bio Service) for six days, then body weight of the […] was measured under fasting and the following various parameter concentrations were measured. Measured items were LDL, HDL, TG value, NEFA and TC value. […] From the next day, a compound suspended in a medium (a 0.5% methyl cellulose solution) was compulsorily administered per os once daily for continuous six days and, at the same time, loading with the high cholesterol feed was continued as well. On the next day of the final administration (i.e., on the seventh day from the start of the administration), lipid levels in blood (TG, HDL, LDL, NEFA and TC values) were measured.
When the data were expressed as relative values where the value for the group to which a medium was administered was defined as 100%, a raising action for HDL and a lowering action for LDL of the compound produced in Example 9 (47) were as shown in Table 2.

[3] = dose 3 mg/kg per os once daily for six days
[4] = dose 10 mg/kg per os once daily for six days
[5] = dose 30 mg/kg per os once daily for six days

## Cc1cc(Oc2ccc(C)cc2OCC#Cc2ccc(C(F)(F)F)cc2)cc(C(=O)O)c1 [Example 9 (47), 3-methyl-5-[4-methyl-2-({3-[4-(trifluoromethyl)phenyl]-2-propynyl}oxy)phenoxy]benzoic acid]
[1]; final concentration 0.1 μM
  Transcription activation degree: 0.73 Fold Increase
[1]; final concentration 0.3 μM
  Transcription activation degree: 1.09 Fold Increase
[1]; final concentration 1.0 μM
  Transcription activation degree: 1.02 Fold Increase
[2]; [3]
  HDL-raising action: 112.0%
  LDL-lowering action: 89.7%
[2]; [4]
  HDL-raising action: 110.2%
  LDL-lowering action: 85.3%
[2]; [5]
  HDL-raising action: 130.7%
  LDL-lowering action: 84.4%
